According to EP4129284B1, “SERTACONAZOL FOR PROVIDING A SPORISTATIC AND/OR SPORICIDAL EFFECT” (Dr. Pfleger Arzneimittel GmbH, priority 2021, dated 2023):

System: full skin models
Type: cell-based, human
Settings: for cell viability: human
Experimental: Additionally, the influence on the cell viability and the release of lactate dehydrogenase (LDH) was examined over the incubation time. Disruptions of the cell membranes can be measured by the release of the cytosolic enzyme LDH and be evaluated as a marker for cellular necrosis. As the biocompatibility of the material is determined by further cellular and molecular factors, the analysis of the cellular interleukin release allows the conclusion on e.g. pro-inflammatory effects of the substances, which would not be possible to be detected by sole cytotoxicity. Such interleukins are interleukins 1α, 6 or 8, which are involved in coordinating the cellular proliferation, cell migration and possible inflammatory processes. Such a method is described in, for example, Wiegand C, Hipler UC. Evaluation of biocompatibility and cytotoxicity using keratinocyte and fibroblast cultures. Skin Pharmacol Physiol 2009; 22:74-82; Wiegand C, Winter D, Hipler UC. Molecular-weight-dependent toxic effects of chitosans on the human keratinocyte cell line HaCaT. Skin Pharmacol Physiol. 2010;23(3):164-70.
The spore suspensions and the solutions of sertaconazol, ciclopiroxolamin and terbinafin were prepared as in Example 1, wherein the respective test concentrations were obtained by diluting these solutions in ultrapure water (WFI; Fresenius Kabi) instead of SGB (Merck). Full skin models were produced as previously described [Reddersen K, Wiegand C, Elsner P, Hipler UC. Three-dimensional human skin model infected with Staphylococcus aureus as a tool for evaluation of bioactivity and biocompatibility of antiseptics. Int J Antimicrob Agents. 2019; 54(3):283-291; Wiegand C, Fink S, Beier O, Horn K, Pfuch A, Schimanski A, Grünler B, Hipler UC, Elsner P. Dose- and Time-Dependent Cellular Effects of Cold Atmospheric Pressure Plasma Evaluated in 3D Skin Models. Skin Pharmacol Physiol. 2016;29(5):257-265].Particularly, normal human dermal fibroblasts (NHDF; Lot 1060702.1, Promocell) and normal human epidermal keratinocytes (NHEK; Lot 9100102, Promocell) were used. Fibroblasts were cultivated in Dulbecco's modified eagle medium (DMEM; Lot MC09049P, Amimed), with 2% foetal calf serum (Lot P160509; PAN), 5 ng/mL hFGF (Lot 0329586; novoprotein) and 5 µg/ml Insulin (Lot H07443P, AMIMED) at 37°C and a 5% CO2 atmosphere. Keratinocytes were cultivated in keratinocyte medium (KBM, Lot 446M063, Promocell) at 37°C and a 5% CO2 atmosphere. The cultivation was performed over 7 days in 75 cm^2 cell culture flasks (Greiner Bio-One). The cells were subsequently detached with Trypsin-EDTA (Lot 2091326; Gibco) and dissolved in the respective medium. For producing the dermis equivalent, fibroblasts were cultivated in 12-well inserts (Greiner bio-one) with DMEM (Lot MC09049P, Amimed) + 10% foetal calf serum (Lot P160509, PAN) + 1% Gentamycin (Lot 2027100, Gibco) + 150 µg/ml ascorbic acid (Lot BCBS1081V, Sigma) for 3 weeks at […] and 5 % CO2. The medium was changed all 2-3 days. Before seeding the keratinocytes for producing the […], the medium surrounding the insert was completely removed and the dermis upper layer was coated with fibronectin (50 µg/mL; Lot 435P078, Promocell). After 30 min of incubation of the dermis equivalent with fibronectin, the seeding of the keratinocytes was performed with 2 × 10^5 cells / insert in KBM (Lot 446M063, Promocell) + 5% FKS (Lot P160509, PAN) + 1% Gentamycin (Lot 2027100, Gibco). Subsequently, the skin models were incubated for 45 min in the incubator before the models were flooded with KBM + 5% FKS + 1% Gentamycin. The skin models were cultivated for 7 days by submersion in the medium with decreasing foetal calf serum concentration (5 %, 2 %, 0 %). The medium was changed all 2-3 days. After the cultivation by submersion, the skin models were further cultivated for 12 days at the air-medium interface (airlift cultivation). […]

| SMILES | effect on the cell viability of the full skin models | secretion of LDH | cell viability [%] |
| --- | --- | --- | --- |
| Cc1cc(C2CCCCC2)n(O)c(=O)c1 [Ciclopiroxolamin, ciclopiroxolamin] | did not have a negative effect | no significant secretion | ≥ 70 |
| Clc1ccc(C(Cn2ccnc2)OCc2csc3c(Cl)cccc23)c(Cl)c1 (stereo not drawn) [Sertaconazol, sertaconazol] | did not have a negative effect | no significant secretion | ≥ 70 |
| CN(C/C=C/C#CC(C)(C)C)Cc1cccc2ccccc12 [Terbinafin, terbinafin] | did not have a negative effect | no significant secretion | ≥ 70 |
